This is an account of results in EP0696280B1, “SUBSTITUTED PYRROLIDIN-3-YL-ALKYL-PIPERIDINES USEFUL AS TACHYKININ ANTAGONISTS” (MERRELL PHARMACEUTICALS INC., priority 1993, dated 1994).

The target of test [1] is T1, NK2 receptor (Bos taurus, UniProt P05363).
T1 construct: expressed in transfected cells; host or cells: SKLKB82#3 cells
T1 sequence (P05363 1-384): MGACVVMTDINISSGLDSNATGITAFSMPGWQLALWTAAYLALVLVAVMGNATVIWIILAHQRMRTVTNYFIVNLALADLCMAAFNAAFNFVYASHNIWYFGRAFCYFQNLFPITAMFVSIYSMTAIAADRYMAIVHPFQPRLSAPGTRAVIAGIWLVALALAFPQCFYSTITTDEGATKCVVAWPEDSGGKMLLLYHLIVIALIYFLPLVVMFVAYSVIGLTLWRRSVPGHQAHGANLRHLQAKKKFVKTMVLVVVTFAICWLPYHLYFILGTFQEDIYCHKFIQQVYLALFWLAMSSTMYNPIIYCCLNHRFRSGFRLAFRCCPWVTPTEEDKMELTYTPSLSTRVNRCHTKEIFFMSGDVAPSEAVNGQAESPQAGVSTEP
Description: Antagonism of NK2 receptor mediated (NKA-induced) phosphatidylinositol turnover in SKLKB82#3 cells. It is filed as cell-based. As to conditions: Schild analysis, NKA in SKLKB82#3 cells; mean (95% confidence limits), 2-3 experiments. On the procedure:
(§1) Tachykinin-mediated inositol phosphate accumulation was measured in UCll or SKLKB82#3 cells in the presence and absence of NK1 or NK2 receptor antagonists, respectively. Tissues were incubated in Krebs-Henseleit buffer at 37°C with 95% O2-5% CO2 gassing. Tissues were then incubated with fresh buffer containing 100 µCi of myo-[2-^3H(N)] inositol at 37°C for 60 min with gentle gassing. After washing twice at room temperature in 5 ml buffer containing 10 mM LiCl, tissues were incubated for 30 min at room temperature with a buffer change at 15 min. Buffer was removed and Krebs-Henseleit buffer (containing 40 µg/ml bacitracin, 4 µg/ml each of leupeptin and chymostatin, 0.1% bovine serum albumin and 10 mM each of thiorphan and LiCl) added. After 15 min, SP was added to UCll cells or NKA to SKLKB82#3 cells at various concentrations to start the reaction. After incubation for 60 min at room temperature the reaction was terminated by addition of 930 µl chloroform: methanol (1:2 by volume) to each tube, followed by 310 µl chloroform and 310 µl doubly distilled water. Samples were vortexed, centrifuged, and 0.9 ml of the aqueous (top) phase removed and added to 2 ml ddH2O. The mixture was vortexed and loaded onto a 50% Bio-Rad AG 1-X8 (formate form, 100-200 mesh) exchange column (Bio-Rad Laboratories, Hercules, CA). The columns were washed, in order, with: 1) 10 ml doubly distilled water, 2) 5 ml of 5 mM disodium tetraborate/60 mM sodium formate, and 3) 5 ml of 1 M ammonium formate/0.1 M formic acid. The third elution was collected and 1 ml counted in 7 ml scintillation fluid. A 50 µl aliquot of the organic (bottom) phase was removed, dried in a scintillation vial and counted in 7 ml scintillation fluid.
(§2) The ratio of DPM in the aqueous phase aliquot (total inositol phosphates) to the DPM in the 50 µl organic phase aliquot (total [^3H]inositol incorporated) was calculated for each sample. Data are expressed as a percent of agonist-induced accumulation of [^3H]-inositol phosphates over basal levels. The ratios in the presence of test compound and/or standards were compared to the ratios for control samples (i.e. no stimulating agonist). Dose-response graphs were constructed and the abilities of the test compounds to inhibit tachykinin-induced phosphatidylinositol turnover determined with the aid of a computer program. […] Data is expressed as percent stimulation of total inositol phosphate accumulation over basal levels and normalized to the maximum response produced by SP. […] Schild analysis is performed using dose response curves (such as those presented in Figures 1a and 1b) to obtain a value indicative of the strength of a competitive antagonist and is expressed as the pA2, which is the negative logarithm of the molar concentration of antagonist which reduces the effect of a dose of agonist to one-half of that expected at the dose of agonist. […]
(§3) Values are mean (95% confidence limits) derived from Schild analysis of 2-3 experiments per compound per receptor.

For test [2], the target named is T2, NK1 receptor (Homo sapiens, UniProt P25103).
T2 construct: endogenous in cells; host or cells: UC11 cells
T2 sequence (P25103 whole entry): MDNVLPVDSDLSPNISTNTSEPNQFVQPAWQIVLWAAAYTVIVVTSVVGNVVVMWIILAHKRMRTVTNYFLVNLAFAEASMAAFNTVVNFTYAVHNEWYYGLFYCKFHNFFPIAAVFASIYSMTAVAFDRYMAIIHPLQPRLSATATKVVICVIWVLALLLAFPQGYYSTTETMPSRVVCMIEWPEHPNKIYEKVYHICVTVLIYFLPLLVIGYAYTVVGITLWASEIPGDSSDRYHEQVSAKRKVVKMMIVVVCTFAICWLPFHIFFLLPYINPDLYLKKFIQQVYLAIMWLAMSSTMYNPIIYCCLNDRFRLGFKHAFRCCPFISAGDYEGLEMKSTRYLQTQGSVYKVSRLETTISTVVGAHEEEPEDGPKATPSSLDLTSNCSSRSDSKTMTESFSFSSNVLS
The experiment in a line: Antagonism of NK1 receptor mediated (SP-induced) phosphatidylinositol turnover in UC11 cells. It is filed as cell-based. As to conditions: Schild analysis, SP in UC11 cells; mean (95% confidence limits), 2-3 experiments. Here is the method: as §1, §2, §3

With `COc1cc(C(=O)N2CCC(CCN3CCC(C(N)=O)(c4ccccc4)CC3)(c3ccc(Cl)c(Cl)c3)C2)cc(OC)c1OC` (single isomer, unassigned; (+)) [Example 20, (+)-1-[2-[3-(3,4-dichloro-phenyl)-1-(3,4,5-trimethoxy-benzoyl)-pyrrolidin-3-yl]-ethyl]-4-phenyl-piperidine-4-carboxylic acid amide], the “NK-2 RECEPTOR -SLOPE” value in test [1] is recorded as 1.00 (0.63-1.37). Further, the “NK-1 RECEPTOR -SLOPE” value in test [2] is reported as 1.03 (0.78-1.28).
